Holding throughout (format): biochemical
Holding throughout (conditions): luminometer

One test concerns the target T1, TBK1 (Homo sapiens, UniProt Q9UHD2).
T1 construct: purchased Promega V3991
T1 sequence (Q9UHD2 1-729): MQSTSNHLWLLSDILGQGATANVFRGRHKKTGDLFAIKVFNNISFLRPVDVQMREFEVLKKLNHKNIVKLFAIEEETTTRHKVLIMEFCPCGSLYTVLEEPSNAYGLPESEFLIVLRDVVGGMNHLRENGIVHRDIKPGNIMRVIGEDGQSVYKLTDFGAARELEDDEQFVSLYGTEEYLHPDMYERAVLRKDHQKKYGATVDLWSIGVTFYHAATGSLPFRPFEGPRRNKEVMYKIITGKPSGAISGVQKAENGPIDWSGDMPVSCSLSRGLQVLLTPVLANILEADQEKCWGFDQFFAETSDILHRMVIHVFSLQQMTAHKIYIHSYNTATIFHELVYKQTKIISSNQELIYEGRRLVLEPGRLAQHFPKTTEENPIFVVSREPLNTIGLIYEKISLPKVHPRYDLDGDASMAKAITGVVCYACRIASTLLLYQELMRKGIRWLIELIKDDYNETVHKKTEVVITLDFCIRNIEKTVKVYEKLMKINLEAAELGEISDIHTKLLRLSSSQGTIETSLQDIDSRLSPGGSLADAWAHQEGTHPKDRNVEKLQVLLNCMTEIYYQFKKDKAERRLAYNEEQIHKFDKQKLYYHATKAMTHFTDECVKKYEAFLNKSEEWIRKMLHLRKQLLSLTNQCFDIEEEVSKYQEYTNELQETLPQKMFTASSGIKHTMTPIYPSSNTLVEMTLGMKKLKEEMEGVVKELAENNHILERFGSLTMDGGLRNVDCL
Put plainly: TBK1 inhibition, ADP-Glo Kinase Assay. An outline of the steps: (§1)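 Each recombinant kinase enzyme system was run per the manufacturer's protocol in 40 mM Tris pH 7.5, 20 mM MgCl2 and 0.1 mg/mL BSA. Kinase activity was detected as ADP formation by ADP-Glo luminescence.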
In general terms: ADP-Glo first removes unused ATP, then detects ADP through luciferase.

The next test has as its target T2, TNIK (Homo sapiens, UniProt Q9UKE5).
T2 construct: purchased Promega V4158
Nature of the test: TNIK inhibition, ADP-Glo Kinase Assay. How it is done: Inhibition activities on TNIK, IKKε and TBK1 were evaluated using the compounds of Examples 1 to 254.
The inhibition activities on TNIK, IKKε and TBK1 were measured by a luminometer, TNIK/IKKε/TBK1 Kinase Enzyme System (Promega, Ca# V4158; Invitrogen, PR8031B, Promega, Ca# V3991) and ADP-Glo Kinase Assay using ADP-Glo™ Kinase Analysis Kit (Promega, Ca# V9101) and a kinase reaction buffer [40 mM Tris(pH 7.5), 20 mM MgCl2, 0.1 mg/mL BSA] in accordance with the manufacturer's protocol.

In a further test the target is T3, IKKε (Homo sapiens, UniProt Q14164).
T3 construct: purchased Invitrogen PR8031B
T3 sequence (Q14164 1-716): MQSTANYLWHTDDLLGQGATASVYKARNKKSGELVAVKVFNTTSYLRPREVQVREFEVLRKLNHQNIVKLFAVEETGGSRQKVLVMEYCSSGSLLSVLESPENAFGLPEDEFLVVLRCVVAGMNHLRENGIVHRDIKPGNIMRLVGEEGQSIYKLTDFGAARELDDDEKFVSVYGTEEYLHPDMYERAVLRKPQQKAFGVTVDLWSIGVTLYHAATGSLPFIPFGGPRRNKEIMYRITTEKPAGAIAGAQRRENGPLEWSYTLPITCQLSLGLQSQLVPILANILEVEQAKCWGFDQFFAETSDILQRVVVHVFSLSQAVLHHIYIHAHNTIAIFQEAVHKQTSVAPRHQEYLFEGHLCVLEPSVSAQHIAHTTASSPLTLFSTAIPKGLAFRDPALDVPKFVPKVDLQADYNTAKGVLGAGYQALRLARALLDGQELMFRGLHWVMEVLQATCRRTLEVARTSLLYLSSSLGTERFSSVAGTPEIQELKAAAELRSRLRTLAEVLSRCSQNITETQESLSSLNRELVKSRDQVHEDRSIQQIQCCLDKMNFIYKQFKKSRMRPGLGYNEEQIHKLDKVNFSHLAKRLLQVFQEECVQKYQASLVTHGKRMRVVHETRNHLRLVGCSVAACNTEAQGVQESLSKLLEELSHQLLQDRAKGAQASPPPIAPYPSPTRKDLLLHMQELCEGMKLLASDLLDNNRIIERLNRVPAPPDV
Nature of the test: IKKε inhibition, ADP-Glo Kinase Assay. The method, boiled down: as §1

This passage reports IC50 results from patent publication US10294207B2, “Pyrazole derivatives as TNIK, IKKϵ and TBK1 inhibitor and pharmaceutical composition comprising same” (GREEN CROSS CORPORATION, priority 2015, dated 2019).

Where only a bound is given, the exact number is not on record here.

T2 sequence (Q9UKE5 1-367 limits assumed): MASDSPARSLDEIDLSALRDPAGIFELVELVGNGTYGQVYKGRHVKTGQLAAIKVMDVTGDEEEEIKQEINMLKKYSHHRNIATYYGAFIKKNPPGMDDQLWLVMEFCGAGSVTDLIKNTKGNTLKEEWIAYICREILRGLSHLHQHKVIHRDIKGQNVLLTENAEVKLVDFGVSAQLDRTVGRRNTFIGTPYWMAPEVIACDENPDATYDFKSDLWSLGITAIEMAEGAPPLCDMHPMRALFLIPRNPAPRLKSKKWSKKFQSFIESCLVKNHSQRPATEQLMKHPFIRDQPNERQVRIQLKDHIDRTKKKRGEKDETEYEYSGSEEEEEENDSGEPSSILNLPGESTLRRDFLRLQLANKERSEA

Turning to `Cc1cnc(-c2cc3[nH]nc(-c4ccc(N5CCOCC5)cc4)c3s2)o1` [Example 243, 4-(4-(5-(5-methyloxazol-2-yl)-1H-thieno[3,2-c]pyrazol-3-yl)phenyl)morpholine], the IC50 – broadly, the midpoint of a concentration-inhibition curve – against TBK1 is more than 10 µM; at TNIK, 0.15 µM.
For `Cc1cnc(-c2cc3[nH]nc(NC(=O)c4ccc(NCCO)cc4)c3s2)o1` [Example 228, 4-((2-hydroxyethyl)amino)-N-(5-(5-methyloxazol-2-yl)-1H-thieno[3,2-c]pyrazol-3-yl)benzamide], the figures for the IC50 against TBK1 and at TNIK were 0.12 µM and 0.11 µM, respectively.
For `O=C(NCCN1CCOCC1)c1cc2[nH]nc(-c3ccc(F)cc3)c2s1` [Example 242, 3-(4-fluorophenyl)-N-(2-morpholinoethyl)-1H-thieno[3,2-c]pyrazole-5-carboxamide], in that order: more than 10 µM and more than 20 µM.
On the same counts, the results for `COc1ccc(-c2n[nH]c3cc(-c4ncc(C)o4)sc23)cc1` [Example 235, 2-(3-(4-methoxyphenyl)-1H-thieno[3,2-c]pyrazol-5-yl)-5-methyloxazole] are more than 10 µM and 0.34 µM.
On the same counts, the results for `COc1ccc(-c2n[nH]c3cc(C(=O)NC(C)C)sc23)cc1` [Example 233, N-isopropyl-3-(4-methoxyphenyl)-1H-thieno[3,2-c]pyrazole-5-carboxamide] are more than 10 µM and 2.86 µM.
`Cc1cnc(-c2cc3[nH]nc(NC(=O)c4ccc(N(C)C)cc4)c3s2)o1` [Example 223, 4-(dimethylamino)-N-(5-(5-methyloxazol-2-yl)-1H-thieno[3,2-c]pyrazol-3-yl)benzamide]: the IC50 against TBK1 came out at 0.094 µM; against TNIK it was 0.11 µM.
On the same counts, the results for `Cc1cnc(-c2cc3[nH]nc(NC(=O)c4ccccc4)c3s2)o1` [Example 220, N-(5-(5-methyloxazol-2-yl)-1H-thieno[3,2-c]pyrazol-3-yl)benzamide] are 1.2 µM and 0.36 µM.
On the same counts, the results for `Cc1cnc(-c2cc3[nH]nc(NC(=O)c4ccc(N5CCOCC5)cc4)c3s2)s1` [Example 219, N-(5-(5-methylthiazol-2-yl)-1H-thieno[3,2-c]pyrazol-3-yl)-4-morpholinobenzamide] are 0.33 µM and 0.13 µM.
For the compound `Cc1cnc(-c2cc3[nH]nc(NC(=O)c4ccc(NCCN5CCCCC5)cc4)c3s2)o1` [Example 224, N-(5-(5-methyloxazol-2-yl)-1H-thieno[3,2-c]pyrazol-3-yl)-4-((2-(piperidin-1-yl)ethyl)amino)benzamide], the IC50 against IKKε came out at 0.32 µM; against TBK1, 0.12 µM; against TNIK, 0.085 µM.
Regarding `COC(=O)c1cc2[nH]nc(-c3ccc(F)cc3)c2s1` [Example 239, methyl 3-(4-fluorophenyl)-1H-thieno[3,2-c]pyrazole-5-carboxylate], the figures for the IC50 against TBK1 and at TNIK were more than 10 µM and 0.86 µM, respectively.
For `CCNC(=O)c1cc2[nH]nc(-c3ccc(OC)cc3)c2s1` [Example 232, N-ethyl-3-(4-methoxyphenyl)-1H-thieno[3,2-c]pyrazole-5-carboxamide], in that order: more than 10 µM and 1.95 µM.
On the same counts, the results for `COC(=O)c1cc2[nH]nc(-c3ccccc3)c2s1` [Example 236, methyl 3-phenyl-1H-thieno[3,2-c]pyrazole-5-carboxylate] are more than 10 µM and 1.27 µM.
For `Cc1cnc(-c2cc3[nH]nc(NC(=O)c4ccc(NCCN5CCCC5)cc4)c3s2)o1` [Example 226, N-(5-(5-methyloxazol-2-yl)-1H-thieno[3,2-c]pyrazol-3-yl)-4-((2-(pyrrolidin-1-yl)ethyl)amino)benzamide], in that order: 0.12 µM and 0.15 µM.
For `Cc1cnc(-c2cc3[nH]nc(NC(=O)c4ccc(NCCN5CCOCC5)cc4)c3s2)o1` [Example 227, N-(5-(5-methyloxazol-2-yl)-1H-thieno[3,2-c]pyrazol-3-yl)-4-((2-morpholinoethyl)amino)benzamide], the 50% inhibitory concentration (IC50) at TBK1 was 0.12 µM; against TNIK it was 0.085 µM.
On the same counts, the results for `Cc1cnc(-c2cc3[nH]nc(NC(=O)c4ccc(NCCN5CCCCC5)cc4)c3s2)s1` [Example 253, N-(5-(5-methylthiazol-2-yl)-1H-thieno[3,2-c]pyrazol-3-yl)-4-((2-(piperidin-1-yl)ethyl)amino)benzamide] are 0.62 µM and 0.28 µM.
For `CCNC(=O)c1cc2[nH]nc(-c3ccc(F)cc3)c2s1` [Example 240, N-ethyl-3-(4-fluorophenyl)-1H-thieno[3,2-c]pyrazole-5-carboxamide], in that order: more than 10 µM and 2.85 µM.
On the same counts, the results for `COC(=O)c1cc2[nH]nc(-c3ccc(N4CCOCC4)cc3)c2s1` [Example 254, methyl 3-(4-morpholinophenyl)-1H-thieno[3,2-c]pyrazole-5-carboxylate] are more than 10 µM and 0.3 µM.
`Cc1cnc(-c2cc3[nH]nc(NC(=O)c4cccc(F)c4)c3s2)o1` [Example 230, 3-fluoro-N-(5-(5-methyloxazol-2-yl)-1H-thieno[3,2-c]pyrazol-3-yl)benzamide]: the IC50 against TBK1 is 1.7 µM; against TNIK, 0.66 µM.
As to `COc1ccc(C(=O)Nc2n[nH]c3cc(-c4ncc(C)o4)sc23)cc1` [Example 222, 4-methoxy-N-(5-(5-methyloxazol-2-yl)-1H-thieno[3,2-c]pyrazol-3-yl)benzamide], the figures for the half-maximal inhibitory concentration (IC50) at TBK1 and against TNIK were 0.35 µM and 0.31 µM, respectively.
`Cc1cnc(-c2cc3[nH]nc(NC(=O)c4ccc(F)cc4)c3s2)o1` [Example 221, 4-fluoro-N-(5-(5-methyloxazol-2-yl)-1H-thieno[3,2-c]pyrazol-3-yl)benzamide]: the IC50 was 1.7 µM against TBK1 and 0.65 µM against TNIK.
On the same counts, the results for `CCc1cnc(-c2cc3[nH]nc(NC(=O)c4ccc(N5CCOCC5)cc4)c3s2)s1` [Example 252, N-(5-(5-ethylthiazol-2-yl)-1H-thieno[3,2-c]pyrazol-3-yl)-4-morpholinobenzamide] are 1.3 µM and 0.41 µM.
For `COCCNc1ccc(C(=O)Nc2n[nH]c3cc(-c4ncc(C)o4)sc23)cc1` [Example 229, 4-((2-methoxyethyl)amino)-N-(5-(5-methyloxazol-2-yl)-1H-thieno[3,2-c]pyrazol-3-yl)benzamide], in that order: 0.14 µM and 0.15 µM.
Take `Cc1cnc(-c2cc3[nH]nc(NC(=O)c4ccc(N5CCN(C)CC5)cc4)c3s2)o1` [Example 225, N-(5-(5-methyloxazol-2-yl)-1H-thieno[3,2-c]pyrazol-3-yl)-4-(4-methylpiperazin-1-yl)benzamide]: the figures for the IC50 on IKKε, against TBK1 and at TNIK were 0.35 µM, 0.13 µM and 0.049 µM, respectively.
